Reference: paper PMC5669356, “Continuous degradation of maltose by enzyme entrapment technology using calcium alginate beads as a matrix” (Biochemistry and Biophysics Reports, 2015)

System: maltase
Experiment: GOD-PAP glucose release assay, Lineweaver-Burk plot
Format: biochemical, Bacillus licheniformis
Settings: free (soluble) enzyme, partially purified; maltose 2.5-50 mM; pH and temperature of the kinetics not stated

OC[C@H]1O[C@H](O[C@H]2[C@H](O)[C@@H](O)C(O)O[C@@H]2CO)[C@H](O)[C@@H](O)[C@@H]1O (stereo partly shown) [maltose]
Km: 1.71 mM ml^−1
